From patent US20200325543A1, “DIAGNOSTIC METHOD” (TOLREMO THERAPEUTICS AG, priority 2017, published 2020)
Values joined by “and” are separate entries in the source; they are usually repeats but may differ in a detail not shown here. Equal entries are not always repeated. Structures can show the parent of a compound that is named as a salt. Where two headings read alike, the source gives them in different places.

Test system: SOX2
Test: Screen of a library of FDA-approved drugs for SOX2 antibody staining in A375 cells treated with PLX4720 and AZD6244
Conditions: for cor. loess: normalized and geometry-corrected (loess) signal; for norm: signal after plate normalization
[1] = A375 cells, 5 uM test drug with 1 uM PLX4720 and 0.5 uM AZD6244, 24 h
[2] = A375 cells, 5 uM test drug with 1 uM PLX4720 and 0.5 uM AZD6244, 24 h, raw signal (ratio of FL2 SOX2 antibody and FL3 nuclear staining), screen run in duplicate
[3] = Z-test against negative controls (DMSO), single dose 5 uM

Compound: C[C@H]1O[C@@H](O[C@H]2[C@@H](O)C[C@H](O[C@H]3[C@@H](O)C[C@H](O[C@H]4CC[C@@]5(C)[C@H](CC[C@@H]6[C@@H]5C[C@@H](O)[C@]5(C)[C@@H](C7=CC(=O)OC7)CC[C@]65O)C4)O[C@@H]3C)O[C@@H]2C)C[C@H](O)[C@@H]1O [DIGOXIN]
- cor. loess [1]: 1.623
- raw [2]: 0.9433
- norm [1]: 1.668
- z [3]: 13.38

Compound: CC(=O)OCC(=O)[C@@]12OC(C)(C)O[C@@H]1C[C@H]1[C@@H]3C[C@H](F)C4=CC(=O)C=C[C@]4(C)[C@@]3(F)[C@@H](O)C[C@@]12C [FLUOCINONIDE]
- cor. loess [1]: 0.4293
- raw [2]: 0.9797
- norm [1]: 0.4123
- z [3]: 3.538

Compound: CC(=O)OCC(=O)[C@@]1(O)CC[C@H]2[C@@H]3CCC4=CC(=O)C=C[C@]4(C)[C@@]3(Cl)[C@@H](Cl)C[C@@]21C [DICHLORISONE ACETATE]
- cor. loess [1]: 0.4911
- raw [2]: 0.9771
- norm [1]: 0.4765
- z [3]: 5.445

Compound: CCN(CC)CCNC(=O)c1c(C)[nH]c(/C=C2\C(=O)Nc3ccc(F)cc32)c1C [Sunitinib]
- cor. loess [1]: 0.5385
- raw [2]: 0.9775
- norm [1]: 0.514
- z [3]: 5.758

Compound: CN1CCN(c2c(F)cc3c(=O)c(C(=O)O)cn4c3c2SCC4)CC1 [RUFLOXACIN HYDROCHLORIDE]
- cor. loess [1]: 0.3991
- raw [2]: 0.9796
- norm [1]: 0.4438
- z [3]: 4.267

Compound: CC(=O)OCC(=O)[C@@]1(O)CC[C@H]2[C@@H]3CCC4=CC(=O)C=C[C@]4(C)[C@H]3[C@@H](O)C[C@@]21C [PREDNISOLONE ACETATE]
- cor. loess [1]: 0.4697
- raw [2]: 0.9772
- norm [1]: 0.4997
- z [3]: 3.871

Compound: O=C1c2ccccc2C(=O)C1c1ccc(Cl)cc1 [CHLORINDIONE]
- cor. loess [1]: 0.3463
- raw [2]: 0.9825
- norm [1]: 0.2966
- z [3]: 3.839

Compound: Nc1cc(F)ccc1NC(=O)c1ccc(CNC(=O)/C=C/c2cccnc2)cc1 [Chidamide]
- cor. loess [1]: 1.067
- raw [2]: 0.9618
- norm [1]: 1.02
- z [3]: 7.547

Compound: CC(C)(C)c1ccc(C(O)CCCN2CCC(C(O)(c3ccccc3)c3ccccc3)CC2)cc1 (centres unmarked) [TERFENADINE]
- cor. loess [1]: 0.2601
- norm [1]: 0.5459
- z [3]: 3.539

Compound: CN(C)c1ccc(C(=C2C=CC(=[N+](C)C)C=C2)c2ccc(N(C)C)cc2)cc1 [GENTIAN VIOLET]
- cor. loess [1]: 1.077
- raw [2]: 0.9601
- norm [1]: 1.09
- z [3]: 8.875

Compound: COC(=O)C[C@](O)(CCCC(C)(C)O)C(=O)O[C@@H]1C(OC)=C[C@]23CCCN2CCc2cc4c(cc2[C@H]13)OCO4 [Homoharringtonine]
- cor. loess [1]: 1.181
- raw [2]: 0.9576
- norm [1]: 1.161
- z [3]: 8.354

Compound: C[C@@H]1C[C@H]2[C@@H]3C[C@H](F)C4=CC(=O)C=C[C@]4(C)[C@@]3(F)[C@@H](O)C[C@]2(C)[C@@]1(O)C(=O)COC(=O)C(C)(C)C [FLUMETHAZONE PIVALATE]
- cor. loess [1]: 0.4809
- raw [2]: 0.9766
- norm [1]: 0.5179
- z [3]: 3.963

Compound: Cc1cc(C(C)(C)CC(C)(C)C)ccc1OCCOCC[N+](C)(C)Cc1ccccc1.[Cl-] [METHYLBENZETHONIUM CHLORIDE]
- cor. loess [1]: 0.2976
- raw [2]: 0.9826
- norm [1]: 0.3484
- z [3]: 4.049

Compound: Cc1cc(C#N)cc(C)c1Oc1nc(Nc2ccc(C#N)cc2)nc(N)c1Br [Etravirine (TMC125), Etravirine]
- cor. loess [1]: 0.646
- raw [2]: 0.9731
- norm [1]: 0.6589
- z [3]: 6.907

Compound: ABAMECTIN [ABAMECTIN (avermectin B1a shown)]
- cor. loess [1]: 0.4606
- raw [2]: 0.9779
- norm [1]: 0.5009
- z [3]: 4.925

Compound: CCCCC(CC)CN1CN(CC(CC)CCCC)CC(C)(N)C1 (centres unmarked) [HEXETIDINE]
- cor. loess [1]: 0.3155
- raw [2]: 0.9834
- norm [1]: 0.2651
- z [3]: 3.497

Compound: C[C@@H]1O[C@@H](O[C@@H]2C=C3CC[C@@H]4[C@H](CC[C@]5(C)[C@@H](c6ccc(=O)oc6)CC[C@]45O)[C@@]3(C)CC2)[C@H](O)[C@H](O)[C@H]1O [PROSCILLARIDIN A]
- cor. loess [1]: 0.5083
- raw [2]: 0.9787
- norm [1]: 0.4294
- z [3]: 3.007

Compound: CCC(=O)O[C@]1(C(=O)SCF)[C@H](C)C[C@H]2[C@@H]3C[C@H](F)C4=CC(=O)C=C[C@]4(C)[C@@]3(F)[C@@H](O)C[C@@]21C [FLUTICASONE PROPIONATE]
- cor. loess [1]: 0.6875
- raw [2]: 0.9704
- norm [1]: 0.713
- z [3]: 4.067

Compound: MONENSIN SODIUM
- cor. loess [1]: 0.5359
- raw [2]: 0.9761
- norm [1]: 0.5968
- z [3]: 4.599

Compound: COC(=O)c1ccc2c(c1)NC(=O)/C2=C(\Nc1ccc(N(C)C(=O)CN2CCN(C)CC2)cc1)c1ccccc1 [Nintedanib (BIBF 1120), Nintedanib]
- cor. loess [1]: 0.5485
- raw [2]: 0.9744
- norm [1]: 0.6171
- z [3]: 4.28

Compound: CN(C)Cc1ccc(S(=O)(=O)n2ccc(/C=C/C(=O)NO)c2)cc1 [Resminostat]
- cor. loess [1]: 0.8
- raw [2]: 0.9656
- norm [1]: 0.8939
- z [3]: 6.242

Compound: C[C@@H]1C[C@H]2[C@@H]3CCC4=CC(=O)C=C[C@]4(C)[C@@]3(F)[C@@H](O)C[C@]2(C)[C@@]1(O)C(=O)COP(=O)(O)O [DEXAMETHASONE SODIUM PHOSPHATE]
- cor. loess [1]: 0.5299
- raw [2]: 0.9748
- norm [1]: 0.5817
- z [3]: 4.367

Compound: Nc1ccccc1NC(=O)c1ccc(CNC(=O)OCc2cccnc2)cc1 [Entinostat (MS-275), Entinostat]
- cor. loess [1]: 0.6933
- raw [2]: 0.9672
- norm [1]: 0.8427
- z [3]: 5.41

Compound: C[C@H]1[C@H](OC(=O)CCC(=O)O)O[C@@H]2O[C@@]3(C)CC[C@H]4[C@H](C)CC[C@@H]1[C@@]24OO3 [ARTESUNATE]
- cor. loess [1]: 0.3246
- raw [2]: 0.9835
- norm [1]: 0.3139
- z [3]: 3.471

Compound: COc1cc2c(c(OC)c1OC)-c1ccc(OC)c(=O)cc1[C@@H](NC(C)=O)CC2 [COLCHICINE]
- cor. loess [1]: 0.7111
- raw [2]: 0.9693
- norm [1]: 0.7731
- z [3]: 5.86

Compound: CO[C@H]1C[C@@H]2CC[C@@H](C)[C@@](O)(O2)C(=O)C(=O)N2CCCC[C@H]2C(=O)O[C@H]([C@H](C)C[C@@H]2CC[C@@H](O)[C@H](OC)C2)CC(=O)[C@H](C)/C=C(\C)[C@@H](O)[C@@H](OC)C(=O)[C@H](C)C[C@H](C)/C=C/C=C/C=C/1C [SIROLIMUS]
- cor. loess [1]: 0.3171
- raw [2]: 0.9808
- norm [1]: 0.4075
- z [3]: 4.314

Compound: CCCSc1ccc2nc(NC(=O)OC)[nH]c2c1 [ALBENDAZOLE]
- raw: 0.9811
- cor. loess [1]: 0.3977
- norm [1]: 0.3992
- z [3]: 5.411

Compound: CC(=O)Nc1c(I)cc(I)c(C(=O)O)c1I [ACETRIAZOIC ACID]
- cor. loess [1]: 0.3537
- raw [2]: 0.9817
- norm [1]: 0.3797
- z [3]: 4.812

Compound: C[C@@H]1C[C@@H]([C@H](O)CC2CC(=O)NC(=O)C2)C(=O)[C@@H](C)C1 [CYCLOHEXIMIDE]
- cor. loess [1]: 0.6971
- raw [2]: 0.9738
- norm [1]: 0.6756
- z [3]: 5.982

Compound: C[CH2][Hg][S]c1ccccc1C(=O)[O-].[Na+] [THIMEROSAL]
- raw: 0.9726 and 0.8663

Compound: CCCCCCc1ccc(O)cc1O.Nc1c2ccccc2nc2ccccc12 [ACRISORCIN]
- raw [2]: 0.9675 and 0.9751
- norm [1]: 0.7754 and 0.5959
- z [3]: 4.872 and 7.943

Compound: GRAMICIDIN [GRAMICIDIN (gramicidin A shown)]
- z: 4.938
- cor. loess [1]: 0.5992
- raw [2]: 0.9705
- norm [1]: 0.7289

Compound: Aprotinin
- cor. loess [1]: 1.14
- raw [2]: 0.9662
- norm [1]: 0.9994
- z [3]: 4.093

Compound: CC(=O)O[C@H]1C(=O)[C@@]2(C)[C@H]([C@H](OC(=O)c3ccccc3)[C@]3(O)C[C@H](OC(=O)[C@H](O)[C@@H](NC(=O)c4ccccc4)c4ccccc4)C(C)=C1C3(C)C)[C@]1(OC(C)=O)CO[C@@H]1C[C@@H]2O [PACLITAXEL]
- cor. loess [1]: 0.341
- raw [2]: 0.9826
- norm [1]: 0.3501
- z [3]: 4.64

Compound: CC1(C)O[C@@H]2C[C@H]3[C@@H]4CCC5=CC(=O)CC[C@]5(C)[C@@]4(F)[C@@H](O)C[C@]3(C)[C@]2(C(=O)CCl)O1 [HALCINONIDE]
- cor. loess [1]: 0.2632
- raw [2]: 0.9853
- norm [1]: 0.2586
- z [3]: 3.581

Compound: Oc1cc(Cl)ccc1Oc1ccc(Cl)cc1Cl [TRICLOSAN]
- cor. loess [1]: 0.531
- raw [2]: 0.9753
- norm [1]: 0.5438
- z [3]: 3.141

Compound: COC(=O)Nc1nc2ccc(Sc3ccccc3)cc2[nH]1 [FENBENDAZOLE]
- cor. loess [1]: 0.4709
- raw [2]: 0.9808
- norm [1]: 0.4377
- z [3]: 4.041

Compound: CO[C@H]1C[C@H](O[C@@H]2/C(C)=C/C[C@@H]3C[C@@H](C[C@]4(CC[C@H](C)[C@@H](C5CCCCC5)O4)O3)OC(=O)[C@@H]3C=C(C)/C(=N/O)[C@H]4OC/C(=C\C=C\[C@@H]2C)[C@]43O)O[C@@H](C)[C@@H]1O [SELAMECTIN]
- cor. loess [1]: 0.533
- raw [2]: 0.9768
- norm [1]: 0.5401
- z [3]: 7.251

Compound: CCOC(=O)O[C@]1(C(=O)COC(=O)CC)CC[C@H]2[C@@H]3CCC4=CC(=O)C=C[C@]4(C)[C@H]3[C@@H](O)C[C@@]21C [PREDNICARBATE]
- cor. loess [1]: 0.3992
- raw [2]: 0.9782
- norm [1]: 0.4403
- z [3]: 4.425

Compound: O=C(Oc1cccc2cccnc12)c1ccccc1 [BENZOXIQUINE]
- cor. loess [1]: 0.5846
- raw [2]: 0.9731
- norm [1]: 0.6197
- z [3]: 3.458
